Earlier results on two compounds are cited in patent publication US11433058B2, “Non-pulsatile prolonged-release betahistine oral solid compositions” (INTAS PHARMACEUTICALS LTD., priority 2017, dated 2022).

Counter-ions that a name gives are not always drawn.

The conditions of data set [1]: oral; immediate release tablet or orodispersible tablet (Betaserc SmPC).
The conditions of data set [2]: per WO2014001267.

Take `O=C(O)Cc1ccccn1` [Example 2-PAA, 2-pyridylacetic acid]: the absolute bioavailability entry in data set [1] is “about 99%”. For `CNCCc1ccccn1` [Betahistine dihydrochloride], the water solubility in data set [2] is reported as 49.3 mg/mL.
